In assay [1] the test system is CD-1 male mice. The assay can be described thus: T-maze footshock active avoidance training (FAAT), retention after 1 week, weakly trained mice, memory enhancement.
Protocol: (§1) Test Animals. After 1 week in the laboratory, CD-1 male mice obtained from Charles River Breeding Laboratories were caged individually 24-48 hr prior to training and remained singly housed until retention was tested 1 week later. Animal rooms were on a 12-hr light/dark cycle with lights going on at the hour of 0600.
(§2) With the exception of pregnenolone sulfate, all of the substances were dissolved in appropriate amounts of pure DMSO and 2 µl of DMSO alone or containing test substance was injected icv into each mouse after training. Pregnenolone sulfate was dissolved in DMSO and diluted with physiological saline to a final concentration of 1% DMSO or less in saline, and the results of, injections of 2 µl of solutions containing pregnenolone sulfate were compared with those obtained with 2 µl of such saline solutions alone.
(§3) Apparatus, Training and Testing Procedures. The T-maze used for footshock active avoidance training (FAAT) consisted of a black plastic alley (46 cm long) with a start box at one end and two goal boxes (17.5 cm long) at the other. The start box was separated from the alley by a plastic guillotine door that prevented movement down the alley until training began. The alley was 12.5 cm deep and 9.8 cm wide. An electrifiable stainless steel rod floor ran throughout the maze.
(§4) Mice were not permitted to explore the maze before training. A block of training trials began when a mouse was placed in the start box. The guillotine door was raised and a muffled doorbell-type buzzer sounded simultaneously; footshock was 5 sec later through a scrambled grid floor shocker (Colbourn Instruments, model E13-08). The goal box first entered during the first set of trials was designated as "incorrect", and footshock was continued until the mouse entered the other goal box, which in all subsequent trials was designated "correct" for the particular mouse. At the end of each group of trials, the mouse was removed to its home cage.
As training proceeded, a mouse made one of two types of responses. A response latency longer than 5 sec was classed as an escape from the footshock. […]
For assay [2], the system named is CD-1 male mice. Put plainly: T-maze footshock active avoidance training (FAAT), retention after 1 week, well-trained mice, prevention of DMSO-induced amnesia. The settings on record: for trials to criterion compared with DMSO alone / saline alone: 3.5X10^-10 mol icv 2-3 min after FAAT, in DMSO, retention tested one week later, groups of 15 mice.
Protocol: as §1, §2, §3, §4
As training proceeded, a mouse made one of two types of responses. A response latency longer than 5 sec was classed as an escape from the footshock. A response latency less than or equal to 5 sec was considered an avoidance, since the mouse avoided receiving a footshock. Two exclusion criteria were applied to reduce learning variability among mice, as follows. On the first training trials, mice with escape latencies greater than 20 sec were discarded. Mice not having at least one errorless escape latency between 1.5 and 3.5 sec on training trials 3 or 4 were excluded. The total exclusions were fewer than 15%. Mice received five such training trials. One week after training and post-trial administration of vehicle alone or vehicle containing test substance, T-maze training was resumed until each mouse made five avoidance responses in six consecutive training trials (trials to criterion). The recall score was taken to be the percentage of tested mice remembering original training.
In these instances, training was performed under conditions that tend to maximize learning (sound intensity, 65 decibels; footshock current, 0.35 mA; intertrial interval, 45 s).
Surgical Procedure in Preparation for Intracerebroventricular (icv) Administration of Substances. Icv injection was the mode of administration of test substances because this eliminates problems of differential penetration of the blood-brain barrier. The following procedure was performed 24-48 hr prior to training.

Structures can show the parent of a compound that is named as a salt.

The values that follow come from patent EP0565674B1, “METHOD FOR MEMORY ENHANCEMENT AND QUALITY OF LIFE IMPROVEMENT” (CITY OF HOPE, priority 1991, dated 1993).

`CC(=O)C1CCC2C3CC=C4CC(OS(=O)(=O)O)CCC4(C)C3CCC12C` (stereo not drawn) [pregnenolone sulfate, 5-pregnen-3β-ol-20-one sulfate, sodium salt]: in the assay with CD-1 male mice [1] (memory enhancement in mice), the “potency relative to DHEA” value is recorded as ~1000 times and the “potency relative to pregnenolone” value was “approximately 10 times”.
For `CC(=O)[C@H]1CC[C@H]2[C@@H]3CCC4=CC(=O)CC[C@]4(C)[C@H]3CC[C@]12C` [progesterone, 4-pregnen-3,20-dione], the “trials to criterion compared with DMSO alone / saline alone” value with CD-1 male mice [2] is “significantly different from those obtained with DMSO alone and significantly greater than those receiving saline alone”.
Same read-out and setting: the same measure for `C[C@]12CCC(=O)C=C1CC[C@@H]1[C@@H]2[C@@H](O)C[C@]2(C=O)[C@@H](C(=O)CO)CC[C@@H]12` [aldosterone, 4-pregnen-11β,21-diol-3,18,20-trione]: “significantly fewer trials to criterion than mice receiving DMSO alone”.
For the molecule `CC(=O)[C@H]1CC[C@H]2[C@@H]3CC=C4C[C@@H](O)CC[C@]4(C)[C@H]3CC[C@]12C` [pregnenolone, 5-pregnen-3β-ol-20-one], the trials to criterion in the assay with CD-1 male mice [1] (weakly trained mice, 3.5X10^-15 mol per mouse icv, p < 0.05 vs vehicle controls (9.30±0.47), mean ± SEM) is listed as 7.70±0.55. For the same molecule, in the assay with CD-1 male mice [2], the “trials to criterion compared with DMSO alone / saline alone” value is reported as “significantly fewer trials to criterion than mice receiving DMSO alone”. In the assay with CD-1 male mice [2] (from dose-response curves), the “potency on a molar basis relative to the other two substances tested (DHEA, testosterone)” value is on record as “at least 100 times”.
For the molecule `C[C@]12CCC(=O)C[C@@H]1CC[C@@H]1[C@@H]2CC[C@]2(C)[C@@H](O)CC[C@@H]12` [dihydrotestosterone, 5α-androstan-17β-ol-3-one], the “trials to criterion compared with DMSO alone / saline alone” value with CD-1 male mice [2] is given as “significantly fewer trials to criterion than mice receiving DMSO alone”.
Turning to `C[C@]12CC[C@H](OS(=O)(=O)O)CC1=CC[C@@H]1[C@@H]2CC[C@]2(C)C(=O)CC[C@@H]12` [DHEAS, dehydroepiandrosterone sulfate], the “trials to criterion compared with DMSO alone / saline alone” value with CD-1 male mice [2] is “significantly fewer trials to criterion than mice receiving DMSO alone”.
On to `C[C@]12CC[C@H]3[C@@H](CCC4=CC(=O)CC[C@@]43C)[C@@H]1CC[C@@H]2O` [testosterone, 4-androsten-17β-ol-3-one], for which the “trials to criterion compared with DMSO alone / saline alone” value in the assay on CD-1 male mice [2] is “significantly fewer trials to criterion than mice receiving DMSO alone”.
Still for that read-out and setting: the same measure for `C[C@]12CC[C@@H]3c4ccc(O)cc4CC[C@H]3[C@@H]1CC[C@@H]2O` [estradiol, 1,3,5(10)-estratrien-3,17β-diol]: “significantly different from those obtained with DMSO alone and significantly greater than those receiving saline alone”; for `C[C@]12CC[C@@H]3c4ccc(O)cc4CC[C@H]3[C@@H]1CCC2=O` [estrone, 1,3,5(10)-estratrien-3-ol-17-one]: “significantly different from those obtained with DMSO alone and significantly greater than those receiving saline alone”.
On the same count and under the same terms, the same measure for `C[C@]12CC[C@H](O)CC1=CC[C@@H]1[C@@H]2CC[C@]2(C)C(=O)CC[C@@H]12` [DHEA, 5-androsten-3β-ol-17-one]: “significantly fewer trials to criterion than mice receiving DMSO alone”.
Still for that read-out and setting: the same measure for `C[C@]12CCC(=O)C=C1CC[C@@H]1[C@@H]2CC[C@]2(C)C(=O)CC[C@@H]12` [androstenedione, 4,androsten-3,17-dione]: “significantly fewer trials to criterion than mice receiving DMSO alone”.
